The series can be described thus: Cytotoxicity on differentiated THP-1 macrophages. Format: cell-based. Particulars: human.
Setting [1] is: differentiated THP-1 macrophages.

Broadly, the CC50 is the concentration that lowers cell viability or growth by half. Read a low CC50 as harm at low concentration. `C[C@@H]1[C@H](O)[C@@H](C)/C=C/C=C/C=C/C=C/C=C/C=C/C=C/[C@H](O[C@@H]2O[C@H](C)[C@@H](O)[C@H](N)[C@@H]2O)C[C@@H]2O[C@](O)(C[C@@H](O)C[C@@H](O)[C@H](O)CC[C@@H](O)C[C@@H](O)CC(=O)O[C@H]1C)C[C@H](O)[C@H]2C(=O)O` [Amph.B, Amphotericin B, reference compound]: the midpoint of cytotoxicity under setting [1], the CC50, lay at 9.8 µM. Consider `O=C(/C=C/c1ccc([N+](=O)[O-])o1)c1ccc(C2CCCCC2)cc1` [LabMol-72], for which the midpoint of cytotoxicity under setting [1], the CC50, lay at 31.1 µM. Against the preceding compound, the CC50 is about 3.2-fold higher. The same measure, in the same setting: the value for `O=C(/C=C/c1ccc([N+](=O)[O-])o1)c1ccc(I)cc1` [LabMol-78] was 49.5 µM; that for `CC(C)(C)c1ccc(C(=O)/C=C/c2ccc([N+](=O)[O-])s2)cc1` [LabMol-86] was 8.4 µM. The compound `CSc1ccc(C(=O)/C=C/c2ccc([N+](=O)[O-])o2)cc1` [LabMol-92] displayed a CC50 of 13.1 µM. In other words, the double-digit micromolar range.
